# From US20150010479A1, “TREATMENT OF MICROBIAL INFECTIONS” (SINCLAIR PHARMACEUTICALS LIMITED, priority 2012, published 2015)
# Where “and” joins values, the source holds several entries; their conditions need not be identical. Identical values can stand only once. Like-named read-outs stand apart in the source and are kept apart here.
# Assays:
# P. gingivalis [1] = test: CPC and delmopinol combination (chequerboard assay), FICi/FBCi; type: cell-based, Porphyromonas gingivalis; conditions: CPC + delmopinol, Standard broth
# Description: (§1) 190 μl of normal broth (standard assays) or broth A was added to wells of a 96 well plate. […] 5 μl of each dilution of delmopinol was added to the appropriate wells of the 96 wells plate. The contents of each well were mixed thoroughly and then 100 μl volume was discarded.
# (§2) Plates were then incubated as described above. […] Following incubation the plates were examined and growth/no growth recorded for every well sample (used for FBC determination).
# (§3) FBCi were calculated in the same manner but using MBC data.
# (§4) The FICi and FBCi were interpreted using the same parameters as set out above.
# Prv. nigrescence [2] = test: as above; type: cell-based, Prevotella nigrescence
# Description: as §1, §2, §3, §4
# C. albicans [3] = test: as above; type: cell-based, Candida albicans; conditions: CPC + delmopinol
# Description: as §1, §2, §3, §4
# C. albicans [4] = test: MIC/MBC of CPC or delmopinol alone; type: cell-based; conditions: Candida albicans, compound alone
# Description: (§5) The final mixture was then sterilized by filtration using a […] PES filter (Nalgene, 169-0045).
# (§6) Bacterial preparations were prepared using freshly grown cultures on solid media. Several loop-fulls of culture were transferred to 10-20 ml of the appropriate broth and vortexed gently until a fine suspension was produced. The initial OD600 nm of the cell suspensions was measured and adjusted to 0.2 to give a colony count of 1×10^8 cfu/ml. Final inocula were prepared by diluting the adjusted cell suspensions in appropriate broth as detailed below:
# (§7) The broths were added to wells in columns 1, 11 (negative control, broth only) and 12 (positive control).
# (§8) 100 μl of normal broth (standard assay) or broth A was added to wells in columns 2-10.
# (§9) After mixing in column 10, 100 μl was discarded. 5 μl of the appropriate solvent was added to wells in column 12, mixed and 100 μl discarded.
# (§10) Finally, 100 μl of inoculum (prepared in either normal broth or 2× broth A) was added to the wells in columns 1-10 and 12 and the plates were incubated as described above.
# E. coli = test: MIC/MBC of CPC or delmopinol alone; type: cell-based; conditions: Escherichia coli, compound alone
# Description: as §5, §6, §7, §8, §9, §10
# P. gingivalis [5] = test: MIC/MBC of CPC or delmopinol alone; type: cell-based; conditions: Porphyromonas gingivalis
# Description: as §5, §6, §7, §8, §9, §10
# Prv. nigrescence [6] = test: MIC/MBC of CPC or delmopinol alone; type: cell-based; conditions: Prevotella, compound alone
# Description: as §5, §6, §7, §8, §9, §10
# S. aureus = test: MIC/MBC of CPC or delmopinol alone; type: cell-based; conditions: Staphylococcus aureus
# Description: as §5, §6, §7, §8, §9, §10
# E. faecalis = test: MIC/MBC of CPC or delmopinol alone; type: cell-based, Entercoccus faecalis; conditions: Enterococcus faecalis, compound alone
# Description: as §5, §6, §7, §8, §9, §10
# [7] = Decapinol base (Broth A), no delmopinol or sodium benzoate present, read-out: Activity alone Decapinol base MBC
# [8] = Decapinol base (Broth A), no delmopinol or sodium benzoate present, read-out: Activity alone Decapinol base MIC
# [9] = Standard broth, read-out: Activity alone Standard MBC
# [10] = Standard broth, read-out: Activity alone Standard MIC
compound,measurement,setting,value
"CCCCCCCCCCCCCCCC[n+]1ccccc1 [CPC, cetylpyridinium chloride]",Combination with delmopinol (FIC) Standard FICi,P. gingivalis [1],0.62p
same,Combination with delmopinol (FIC) Decapinol base FBCi,Prv. nigrescence [2],0.53p
same,Combination with delmopinol (FIC) Decapinol base FICi,Prv. nigrescence [2],0.5 s
same,Combination with delmopinol (FIC) Standard FBCi,Prv. nigrescence [2],0.79
same,Combination with delmopinol (FIC) Decapinol base FBCi,C. albicans [3]; Decapinol base (Broth A),0.65p
same,Combination with delmopinol (FIC) Decapinol base FICi,C. albicans [3]; Decapinol base (Broth A),0.99
same,Combination with delmopinol (FIC) Standard FBCi,C. albicans [3]; Standard broth,0.68p
"CCCC(CCC)CCCC1COCCN1CCO (centres unmarked) [Delmopinol, 3-(4-propylheptyl)-4-(2-hydroxyethyl)morpholine]",MBC,C. albicans [4]; [7],120 µg/mL and 460 µM
same,MIC,C. albicans [4]; [8],120 µg/mL and 460 µM
same,MBC,C. albicans [4]; [9],500 µg/mL and 1840 µM
same,MIC,C. albicans [4]; [10],500 µg/mL and 1840 µM
same,MBC,E. coli; [7],250 µg/mL and 920 µM
same,MIC,E. coli; [8],250 µg/mL and 920 µM
same,MBC,E. coli; [9],250 µg/mL and 920 µM
same,MIC,E. coli; [10],250 µg/mL and 920 µM
same,MBC,P. gingivalis [5]; read-out: Activity alone Decapinol base MBC,31.2 µg/mL
same,MIC,P. gingivalis [5]; read-out: Activity alone Decapinol base MIC,31.2 µg/mL
same,MBC,P. gingivalis [5]; read-out: Activity alone Standard MBC,31.2 µg/mL
same,MBC,"P. gingivalis [5]; P. gingivalis, compound alone, Decapinol base (Broth A), no delmopinol or sodium benzoate present, read-out: Activity alone Decapinol base MBC",120 µM
same,MIC,"P. gingivalis [5]; P. gingivalis, compound alone, Decapinol base (Broth A), no delmopinol or sodium benzoate present, read-out: Activity alone Decapinol base MIC",1.2 µM
same,MBC,"P. gingivalis [5]; P. gingivalis, compound alone, Standard broth, read-out: Activity alone Standard MBC",120 µM
same,MIC,"P. gingivalis [5]; P. gingivalis, compound alone, Standard broth, read-out: Activity alone Standard MIC",1.95 µg/mL
same,MBC,Prv. nigrescence [6]; [7],125 µg/mL and 460 µM
same,MIC,Prv. nigrescence [6]; [8],31.2 µg/mL and 120 µM
same,MBC,Prv. nigrescence [6]; [9],62.5 µg/mL and 230 µM
same,MIC,Prv. nigrescence [6]; [10],62.5 µg/mL and 230 µM
same,MIC,S. aureus; read-out: Activity alone Standard MIC,125 µg/mL
same,MBC,"S. aureus; S. aureus, compound alone, Decapinol base (Broth A), no delmopinol or sodium benzoate present, read-out: Activity alone Decapinol base MBC",250 µg/mL and 920 µM
same,MIC,"S. aureus; S. aureus, compound alone, Decapinol base (Broth A), no delmopinol or sodium benzoate present, read-out: Activity alone Decapinol base MIC",250 µg/mL and 920 µM
same,MBC,"S. aureus; S. aureus, compound alone, Standard broth, read-out: Activity alone Standard MBC",250 µg/mL and 920 µM
same,MIC,"S. aureus; S. aureus, compound alone, Standard broth, read-out: Activity alone Standard MIC",460 µM
same,MBC,E. faecalis; [7],250 µg/mL and 920 µM
same,MIC,E. faecalis; [8],250 µg/mL and 920 µM
same,MBC,E. faecalis; [9],250 µg/mL and 920 µM
same,MIC,E. faecalis; [10],250 µg/mL and 920 µM
